Experimental data from patent US20180320217A1, “METHODS FOR SAMPLING AND MEASURING ORAL LAVAGE PROTEINS” (The Procter & Gamble Company, priority 2017, published 2018).
“And” between values parts separate entries of the source, which are not always exact repeats. Equal entries are not always repeated. Structures can show the parent of a compound that is named as a salt.

How the values were obtained:
Malate dehydrogenase [1] = molecular target: T1, Malate dehydrogenase (Sus scrofa, UniProt P00346); assay: Formation of formazan dyes: Malate dehydrogenase and 1-Methoxy PMS, absence of malate (TABLE 17); format: biochemical, pig heart; design: L-malate dehydrogenase (pig heart); purchased Sigma-Aldrich 10127248001 / 10127914001
T1 sequence (P00346 25-338): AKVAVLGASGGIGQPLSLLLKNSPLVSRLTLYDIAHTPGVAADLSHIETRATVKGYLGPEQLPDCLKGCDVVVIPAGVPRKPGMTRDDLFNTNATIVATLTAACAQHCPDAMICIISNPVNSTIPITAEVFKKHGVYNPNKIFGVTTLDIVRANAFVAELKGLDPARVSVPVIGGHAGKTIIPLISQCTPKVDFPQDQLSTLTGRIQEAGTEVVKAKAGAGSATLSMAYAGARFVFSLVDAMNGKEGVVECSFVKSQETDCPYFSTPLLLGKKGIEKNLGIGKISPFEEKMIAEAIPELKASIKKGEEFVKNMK

Malate dehydrogenase [2] = molecular target: T1, Malate dehydrogenase; assay: Formation of formazan dyes: Malate dehydrogenase, malate and 1-Methoxy PMS (TABLE 18); format: biochemical, pig heart; design: L-malate dehydrogenase (pig heart); purchased Sigma-Aldrich 10127248001 / 10127914001
[3] = Formation of formazan dyes: control buffer and 1-Methoxy PMS, absence of malate (TABLE 21); format: biochemical
diaphorase [4] = assay: Formation of formazan dyes: only diaphorase, not malate (TABLE 13); format: biochemical, Clostridium kluyveri; settings: mean of three experiments
diaphorase [5] = assay: Formation of formazan dyes: NADH, diaphorase and malate (TABLE 8); format: biochemical, Clostridium kluyveri; settings: NADH, diaphorase and malate
oral lavage [6] = assay: Formation of formazan dyes: oral lavage, malate and diaphorase (TABLE 12); format: biochemical, human; settings: oral lavage, malate and diaphorase
[7] = Formation of formazan dyes: control buffer, malate and 1-Methoxy PMS (TABLE 22); format: biochemical
[8] = Formation of formazan dyes: NADH, malate and 1-methoxy PMS (TABLE 16); format: biochemical
diaphorase [9] = assay: Formation of formazan dyes: NADH and diaphorase, absence of malate (TABLE 7); format: biochemical, Clostridium kluyveri; settings: NADH and diaphorase, absence of malate
[10] = test system: Malate dehydrogenase and diaphorase; assay: Formation of formazan dyes: Malate dehydrogenase and diaphorase, absence of malate (TABLE 9); format: biochemical, pig heart
diaphorase [11] = assay: Formation of formazan dyes: only diaphorase and malate (TABLE 14); format: biochemical, Clostridium kluyveri; settings: mean of three experiments
[12] = test system: Malate dehydrogenase and diaphorase; assay: Formation of formazan dyes: Malate dehydrogenase, diaphorase and malate (TABLE 10); format: biochemical, pig heart
oral lavage [13] = assay: Formation of formazan dyes: oral lavage and diaphorase, not malate (TABLE 11); format: biochemical, human

With `COc1cc([N+](=O)[O-])c(S(=O)(=O)[O-])cc1-n1nc(C(=O)Nc2ccccc2)n[n+]1-c1cc(S(=O)(=O)O)c([N+](=O)[O-])cc1OC` [XTT, 2,3-Bis(2-methoxy-4-nitro-5-sulfophenyl)-2H-tetrazolium-5-carboxanilide inner salt] as the molecule, how does the “Absorbance, formation of formazan dyes (Means)” value (from here on “Absorbance, formation”) (Malate dehydrogenase [1]) read?
Its value is 0.61 and 0.72 and 0.80 and 0.82 and 0.84 and 0.85 and 0.91 and 0.93.

And the “Absorbance, formation” value (Malate dehydrogenase [2])?
Its value is 2.09 and 3.28 and 3.71 and 3.96 and 4.00.

And the “conversion into colored formazan dyes in assay buffer containing 1-methoxy PMS” value [3]?
Its value is “slowly catalyze the conversion of tetrazolium salts into colored formazan dyes”.

What about the “Absorbance, formation” value (diaphorase [4]; 0 h) of the same molecule?
Its value is 0.41.

And the “Absorbance, formation” value (diaphorase [4]; 1 h)?
The value was 0.49.

What about the “Absorbance, formation” value (diaphorase [4]; 2 h) of the same molecule?
The value was 0.52.

And the “Absorbance, formation” value (diaphorase [4]; 3 h)?
The value was 0.54.

What about the “Absorbance, formation” value (diaphorase [4]; 4 h) of the same molecule?
Its value is 0.54.

And the “Absorbance, formation” value (diaphorase [4]; 6 h)?
The value was 0.60.

What about the “Absorbance, formation” value (diaphorase [4]; 8 h) of the same molecule?
The value was 0.63.

And the “Absorbance, formation” value (diaphorase [4]; 10 h)?
Its value is 0.64.

And the “Absorbance, formation” value (diaphorase [4]; 12 h)?
The value was 0.67.

And the “Formation of formazan dyes, absorbance, Means 0 h” value (“Formation … Means 0 h” below) (diaphorase [5]; 0 h)?
The value was 1.95.

And the “Formation of formazan dyes, absorbance, Means 1 h” value (from here on “Formation … Means 1 h”) (diaphorase [5]; 1 h)?
The value was 2.20.

And the “Formation of formazan dyes, absorbance, Means 2 h” value (shortened to “Formation … Means 2 h”) (diaphorase [5]; 2 h)?
The value was 2.18.

And the “Formation of formazan dyes, absorbance, Means 3 h” value (“Formation … Means 3 h” below) (diaphorase [5]; 3 h)?
The value was 2.17.

And the “Formation of formazan dyes, absorbance, Means 4 h” value (from here on “Formation … Means 4 h”) (diaphorase [5]; 4 h)?
The value was 2.23.

What about the “Formation of formazan dyes, absorbance, Means 6 h” value (shortened to “Formation … Means 6 h”) (diaphorase [5]; 6 h) of the same molecule?
The value was 2.28.

What about the “Formation of formazan dyes, absorbance, Means 8 h” value (“Formation … Means 8 h” below) (diaphorase [5]; 8 h) of the same molecule?
The value was 2.33.

What about the “Formation of formazan dyes, absorbance, Means 10 h” value (from here on “Formation … Means 10 h”) (diaphorase [5]; 10 h) of the same molecule?
Its value is 2.41.

What about the “Formation of formazan dyes, absorbance, Means 12 h” value (“Formation … Means 12 h” below) (diaphorase [5]; 12 h) of the same molecule?
Its value is 2.45.

And the “Formation … Means 0 h” value (oral lavage [6]; 0 h)?
Its value is 0.75.

And the “Formation … Means 1 h” value (oral lavage [6]; 1 h)?
The value was 0.88.

What about the “Formation … Means 2 h” value (oral lavage [6]; 2 h) of the same molecule?
The value was 0.94.

And the “Formation … Means 3 h” value (oral lavage [6]; 3 h)?
Its value is 0.98.

What about the “Formation … Means 4 h” value (oral lavage [6]; 4 h) of the same molecule?
Its value is 1.19.

And the “Formation … Means 6 h” value (oral lavage [6]; 6 h)?
The value was 1.41.

And the “Formation … Means 8 h” value (oral lavage [6]; 8 h)?
Its value is 1.73.

And the “Formation … Means 10 h” value (oral lavage [6]; 10 h)?
The value was 1.90.

And the “Formation … Means 12 h” value (oral lavage [6]; 12 h)?
Its value is 2.08.

And the “Means absorbance 0 h” value [7]?
Its value is 0.42.

What about the “Means absorbance 1 h” value [7] of the same molecule?
Its value is 0.48.

And the “Means absorbance 2 h” value [7]?
The value was 0.53.

What about the “Means absorbance 3 h” value [7] of the same molecule?
The value was 0.59.

And the “Means absorbance 4 h” value [7]?
The value was 0.60.

What about the “Means absorbance 6 h” value [7] of the same molecule?
Its value is 0.77.

And the “Means absorbance 8 h” value [7]?
The value was 0.91.

What about the “Means absorbance 10 h” value [7] of the same molecule?
The value was 1.03.

And the “Means absorbance 12 h” value [7]?
The value was 1.17.

What about the “Absorbance, formation” value [8] of the same molecule?
The value was 1.51 and 1.56 and 1.61 and 1.67 and 1.80 and 1.94 and 2.02 and 2.15.

What about the “Formation … Means 0 h” value (diaphorase [9]; 0 h) of the same molecule?
The value was 2.22.

What about the “Formation … Means 1 h” value (diaphorase [9]; 1 h) of the same molecule?
The value was 2.35.

What about the “Formation … Means 2 h” value (diaphorase [9]; 2 h) of the same molecule?
Its value is 2.36.

What about the “Formation … Means 3 h” value (diaphorase [9]; 3 h) of the same molecule?
Its value is 2.32.

And the “Formation … Means 4 h” value (diaphorase [9]; 4 h)?
Its value is 2.40.

And the “Formation … Means 6 h” value (diaphorase [9]; 6 h)?
The value was 2.39.

What about the “Formation … Means 8 h” value (diaphorase [9]; 8 h) of the same molecule?
The value was 2.45.

And the “Formation … Means 10 h” value (diaphorase [9]; 10 h)?
Its value is 2.45.

What about the “Formation … Means 12 h” value (diaphorase [9]; 12 h) of the same molecule?
The value was 2.46.

What about the “Formation … Means 0 h” value ([10]; Malate dehydrogenase and diaphorase, absence of malate, 0 h) of the same molecule?
Its value is 0.39.

And the “Formation … Means 1 h” value ([10]; Malate dehydrogenase and diaphorase, absence of malate, 1 h)?
The value was 0.44.

What about the “Formation … Means 2 h” value ([10]; Malate dehydrogenase and diaphorase, absence of malate, 2 h) of the same molecule?
Its value is 0.46.

And the “Formation … Means 3 h” value ([10]; Malate dehydrogenase and diaphorase, absence of malate, 3 h)?
The value was 0.50.

And the “Formation … Means 4 h” value ([10]; Malate dehydrogenase and diaphorase, absence of malate, 4 h)?
Its value is 0.50.

What about the “Formation … Means 6 h” value ([10]; Malate dehydrogenase and diaphorase, absence of malate, 6 h) of the same molecule?
Its value is 0.54.

What about the “Formation … Means 8 h” value ([10]; Malate dehydrogenase and diaphorase, absence of malate, 8 h) of the same molecule?
The value was 0.57.

And the “Formation … Means 10 h” value ([10]; Malate dehydrogenase and diaphorase, absence of malate, 10 h)?
The value was 0.58.

What about the “Formation … Means 12 h” value ([10]; Malate dehydrogenase and diaphorase, absence of malate, 12 h) of the same molecule?
The value was 0.66.

And the “reduction of tetrazolium dye in the absence of substrate malate” value ([10]; malate dehydrogenase and diaphorase (TABLE 9))?
Its value is “remained largely in oxidized forms”.

And the “Absorbance, formation” value (diaphorase [11]; 0 h)?
Its value is 0.39.

What about the “Absorbance, formation” value (diaphorase [11]; 1 h) of the same molecule?
The value was 0.45.

What about the “Absorbance, formation” value (diaphorase [11]; 2 h) of the same molecule?
The value was 0.48.

What about the “Absorbance, formation” value (diaphorase [11]; 3 h) of the same molecule?
Its value is 0.53.

And the “Absorbance, formation” value (diaphorase [11]; 4 h)?
Its value is 0.52.

And the “Absorbance, formation” value (diaphorase [11]; 6 h)?
The value was 0.57.

And the “Absorbance, formation” value (diaphorase [11]; 8 h)?
Its value is 0.63.

What about the “Absorbance, formation” value (diaphorase [11]; 10 h) of the same molecule?
The value was 0.69.

And the “Absorbance, formation” value (diaphorase [11]; 12 h)?
The value was 0.73.

And the “Formation … Means 0 h” value ([12]; Malate dehydrogenase, diaphorase and malate, 0 h)?
The value was 1.21.

What about the “Formation … Means 1 h” value ([12]; Malate dehydrogenase, diaphorase and malate, 1 h) of the same molecule?
Its value is 1.98.

And the “Formation … Means 2 h” value ([12]; Malate dehydrogenase, diaphorase and malate, 2 h)?
The value was 2.41.

And the “Formation … Means 3 h” value ([12]; Malate dehydrogenase, diaphorase and malate, 3 h)?
The value was 2.71.

And the “Formation … Means 4 h” value ([12]; Malate dehydrogenase, diaphorase and malate, 4 h)?
The value was 3.02.

What about the “Formation … Means 6 h” value ([12]; Malate dehydrogenase, diaphorase and malate, 6 h) of the same molecule?
The value was 3.54.

What about the “Formation … Means 8 h” value ([12]; Malate dehydrogenase, diaphorase and malate, 8 h) of the same molecule?
The value was 3.86.

What about the “Formation … Means 10 h” value ([12]; Malate dehydrogenase, diaphorase and malate, 10 h) of the same molecule?
The value was 3.90.

What about the “Formation … Means 12 h” value ([12]; Malate dehydrogenase, diaphorase and malate, 12 h) of the same molecule?
The value was 3.80.

And the “conversion to reduced formazan dyes” value ([12]; malate dehydrogenase, diaphorase and malate (TABLE 10))?
The value was “converted to reduced formazan dyes in a time-dependent manner”.

And the “Formation … Means 0 h” value (oral lavage [13]; oral lavage and diaphorase, not malate, 0 h)?
Its value is 0.80.

What about the “Formation … Means 1 h” value (oral lavage [13]; oral lavage and diaphorase, not malate, 1 h) of the same molecule?
Its value is 0.98.

What about the “Formation … Means 2 h” value (oral lavage [13]; oral lavage and diaphorase, not malate, 2 h) of the same molecule?
The value was 1.04.

And the “Formation … Means 3 h” value (oral lavage [13]; oral lavage and diaphorase, not malate, 3 h)?
Its value is 0.99.

What about the “Formation … Means 4 h” value (oral lavage [13]; oral lavage and diaphorase, not malate, 4 h) of the same molecule?
Its value is 1.18.

What about the “Formation … Means 6 h” value (oral lavage [13]; oral lavage and diaphorase, not malate, 6 h) of the same molecule?
Its value is 1.24.

What about the “Formation … Means 8 h” value (oral lavage [13]; oral lavage and diaphorase, not malate, 8 h) of the same molecule?
Its value is 1.26.

And the “Formation … Means 10 h” value (oral lavage [13]; oral lavage and diaphorase, not malate, 10 h)?
The value was 1.27.

What about the “Formation … Means 12 h” value (oral lavage [13]; oral lavage and diaphorase, not malate, 12 h) of the same molecule?
The value was 1.28.

What about the “reduction to formazan dyes by pooled oral lavage” value (oral lavage [13]; pooled oral lavage of high bleeder group, diaphorase, no added malate (TABLE 11)) of the same molecule?
Its value is “changed to formazan dyes in a significant amount”.
